Residues, ends and D or L forms follow the SMILES beside them.
What was measured:
[1] = system: NHEKs, IL-6 secretion in response to U1 dsRNA; test: IL-6 secretion ELISA in NHEKs; type: cell-based, human; details: U1 dsRNA 2.5 μg/ml + peptide 2 μM, 18 h, n = 3
Description: Protein levels of human IL-6 were analyzed from cell supernatant with ELISA (n = 3). Corresponding MIC values of LL-34 peptides L1A–R34A against Staphylococcus aureus USA300 are shown in the heat map. B, human dermal endothelial cells (HDMECs) were treated with either U1 dsRNA (2.5 μg/ml) or a combination of U1 dsRNA (2.5 μg/ml) and LL-34 peptides (Pep 1–Pep 34 and Pep–parent LL-34) at 2 μM for 18 h. IL-6 ELISA results are shown (n = 3). Green bars denote loss of IL-6 protein secretion compared with parent control shown in red. C, helical wheel plot for LL-34. Amino acids with green circles denote specific residues where replacement with an alanine caused the loss of IL-6 secretion compared with parent LL-34 peptide in NHEKs cotreated with U1 dsRNA. D, in the helical wheel plot for LL-34, circled green amino acids indicate that a substitution caused a loss of vetting in HDMEC. E–H, NHEKs were treated with LL-34-parent peptide (LL-34-P), LL-34-F5A, LL-34-I24A, LL-34-F27A, and LL-34-L31A at 2 μM, either individually or in combination with U1 dsRNA (2.5 μg/ml) for 8 h. Gene expression of IL-6, IFNB1, TSLP, and CXCL10 was assessed with qRT-PCR. GAPDH was used as a reference gene (n = 3) (∗p < 0.05; ∗∗∗∗p < 0.0001). One way-ANOVA was used. IL-6, interleukin 6; LL-34, 34-amino acid peptide; MIC, minimum inhibitory concentration, ns, not significant.
We hypothesized that sequential replacement of each amino acid in LL-34 peptide with a neutral amino acid alanine might reveal the amino acid residues critical for its ability to induce inflammation in response to U1 dsRNA. First, we treated NHEKs and human dermal microvascular endothelial cells (HDMECs) with LL-34 parent peptide and each of the 34 mutants at 2 μM for 18 h and measured the secretion of interleukin 6 (IL-6) in the supernatant by ELISA (Fig. S1, A and B). […] We then treated both NHEKs and HDMECs with a combination of U1 dsRNA (2.5 μg/ml) and the LL-34 parent/mutant peptides at 2 μM for 18 h and measured IL-6 secretion (Fig. 1, A–C). […] A similar pattern of IL-6 release was observed when HDMECs were treated with the peptide library and U1 dsRNA (Fig. 1B).
Cell culture supernatant was frozen at −80 °C until use for analysis. ELISA was performed with sandwich ELISA kits (R&D Systems) and quantified on a Spectramax Absorbance reader (Molecular Biosystems). Data were analyzed with GraphPad.

[2] = system: normal human epidermal keratinocytes (NHEKs); test: LDH release cytotoxicity assay in keratinocytes; type: cell-based; details: minimal concentration giving 50% LDH release by NHEKs
Method in brief: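 Normal human epidermal keratinocytes were exposed to LL-34 parent and alanine-substituted peptides. Cytotoxicity was read as LDH release in fresh culture supernatants after treatment, using a commercial kit, and reported as the minimal concentration showing toxicity.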

SMILES | IL-6 protein secretion, cotreatment with U1 dsRNA, vs U1 dsRNA + LL-34 parent [1] | Minimal cytotoxic concentration in NHEK (LD50) [2]
CC[C@H](C)[C@H](NC(=O)[C@H](CCCCN)NC(=O)[C@H](CCC(=O)O)NC(=O)[C@H](CCCCN)NC(=O)[C@H](CO)NC(=O)[C@H](CCCCN)NC(=O)[C@H](CCCNC(=N)N)NC(=O)[C@H](C)NC(=O)[C@H](Cc1ccccc1)NC(=O)[C@H](CC(=O)O)NC(=O)CNC(=O)[C@H](CC(C)C)NC(=O)[C@@H](N)CC(C)C)C(=O)NCC(=O)N[C@@H](CCCCN)C(=O)N[C@@H](CCC(=O)O)C(=O)N[C@@H](Cc1ccccc1)C(=O)N[C@@H](CCCCN)C(=O)N[C@@H](CCCNC(=N)N)C(=O)N[C@H](C(=O)N[C@H](C(=O)N[C@@H](CCC(N)=O)C(=O)N[C@@H](CCCNC(=N)N)C(=O)N[C@H](C(=O)N[C@@H](CCCCN)C(=O)N[C@@H](CC(=O)O)C(=O)N[C@@H](Cc1ccccc1)C(=O)N[C@@H](CC(C)C)C(=O)N[C@@H](CCCNC(=N)N)C(=O)N[C@@H](CC(N)=O)C(=O)N[C@@H](CC(C)C)C(=O)N[C@H](C(=O)N1CCC[C@H]1C(=O)N[C@@H](CCCNC(=N)N)C(=O)O)C(C)C)[C@@H](C)CC)C(C)C)[C@@H](C)CC [LL-34—F6A] (H-LLGDFARKSKEKIGKEFKRIVQRIKDFLRNLVPR-OH) | reduced secretion of IL-6 protein | 5 µM
CC[C@H](C)[C@H](NC(=O)[C@H](CCCCN)NC(=O)[C@H](CCC(=O)O)NC(=O)[C@H](CCCCN)NC(=O)[C@H](CO)NC(=O)[C@H](CCCCN)NC(=O)[C@H](CCCNC(=N)N)NC(=O)[C@H](Cc1ccccc1)NC(=O)[C@H](Cc1ccccc1)NC(=O)[C@H](CC(=O)O)NC(=O)CNC(=O)[C@H](CC(C)C)NC(=O)[C@@H](N)CC(C)C)C(=O)NCC(=O)N[C@@H](CCCCN)C(=O)N[C@@H](CCC(=O)O)C(=O)N[C@@H](Cc1ccccc1)C(=O)N[C@@H](CCCCN)C(=O)N[C@@H](CCCNC(=N)N)C(=O)N[C@H](C(=O)N[C@H](C(=O)N[C@@H](CCC(N)=O)C(=O)N[C@@H](CCCNC(=N)N)C(=O)N[C@H](C(=O)N[C@@H](CCCCN)C(=O)N[C@@H](CC(=O)O)C(=O)N[C@@H](Cc1ccccc1)C(=O)N[C@@H](CC(C)C)C(=O)N[C@@H](CCCNC(=N)N)C(=O)N[C@@H](CC(N)=O)C(=O)N[C@@H](CC(C)C)C(=O)N[C@@H](C)C(=O)N1CCC[C@H]1C(=O)N[C@@H](CCCNC(=N)N)C(=O)O)[C@@H](C)CC)C(C)C)[C@@H](C)CC [LL-34—V32A] (H-LLGDFFRKSKEKIGKEFKRIVQRIKDFLRNLAPR-OH) | reduced secretion of IL-6 protein | 10 µM
CC[C@H](C)[C@H](NC(=O)[C@H](CCCCN)NC(=O)[C@H](CCC(=O)O)NC(=O)[C@H](C)NC(=O)[C@H](CO)NC(=O)[C@H](CCCCN)NC(=O)[C@H](CCCNC(=N)N)NC(=O)[C@H](Cc1ccccc1)NC(=O)[C@H](Cc1ccccc1)NC(=O)[C@H](CC(=O)O)NC(=O)CNC(=O)[C@H](CC(C)C)NC(=O)[C@@H](N)CC(C)C)C(=O)NCC(=O)N[C@@H](CCCCN)C(=O)N[C@@H](CCC(=O)O)C(=O)N[C@@H](Cc1ccccc1)C(=O)N[C@@H](CCCCN)C(=O)N[C@@H](CCCNC(=N)N)C(=O)N[C@H](C(=O)N[C@H](C(=O)N[C@@H](CCC(N)=O)C(=O)N[C@@H](CCCNC(=N)N)C(=O)N[C@H](C(=O)N[C@@H](CCCCN)C(=O)N[C@@H](CC(=O)O)C(=O)N[C@@H](Cc1ccccc1)C(=O)N[C@@H](CC(C)C)C(=O)N[C@@H](CCCNC(=N)N)C(=O)N[C@@H](CC(N)=O)C(=O)N[C@@H](CC(C)C)C(=O)N[C@H](C(=O)N1CCC[C@H]1C(=O)N[C@@H](CCCNC(=N)N)C(=O)O)C(C)C)[C@@H](C)CC)C(C)C)[C@@H](C)CC [LL-34—K10A] (H-LLGDFFRKSAEKIGKEFKRIVQRIKDFLRNLVPR-OH; N-terminus and C-terminus assumed) |  | 5 µM
CC[C@H](C)[C@H](NC(=O)[C@H](CCCCN)NC(=O)[C@H](CCC(=O)O)NC(=O)[C@H](CCCCN)NC(=O)[C@H](CO)NC(=O)[C@H](CCCCN)NC(=O)[C@H](C)NC(=O)[C@H](Cc1ccccc1)NC(=O)[C@H](Cc1ccccc1)NC(=O)[C@H](CC(=O)O)NC(=O)CNC(=O)[C@H](CC(C)C)NC(=O)[C@@H](N)CC(C)C)C(=O)NCC(=O)N[C@@H](CCCCN)C(=O)N[C@@H](CCC(=O)O)C(=O)N[C@@H](Cc1ccccc1)C(=O)N[C@@H](CCCCN)C(=O)N[C@@H](CCCNC(=N)N)C(=O)N[C@H](C(=O)N[C@H](C(=O)N[C@@H](CCC(N)=O)C(=O)N[C@@H](CCCNC(=N)N)C(=O)N[C@H](C(=O)N[C@@H](CCCCN)C(=O)N[C@@H](CC(=O)O)C(=O)N[C@@H](Cc1ccccc1)C(=O)N[C@@H](CC(C)C)C(=O)N[C@@H](CCCNC(=N)N)C(=O)N[C@@H](CC(N)=O)C(=O)N[C@@H](CC(C)C)C(=O)N[C@H](C(=O)N1CCC[C@H]1C(=O)N[C@@H](CCCNC(=N)N)C(=O)O)C(C)C)[C@@H](C)CC)C(C)C)[C@@H](C)CC [LL-34—R7A] (H-LLGDFFAKSKEKIGKEFKRIVQRIKDFLRNLVPR-OH; N-terminus and C-terminus assumed) |  | 5 µM
CC[C@H](C)[C@H](NC(=O)[C@H](CCCCN)NC(=O)[C@H](C)NC(=O)[C@H](CCCCN)NC(=O)[C@H](CO)NC(=O)[C@H](CCCCN)NC(=O)[C@H](CCCNC(=N)N)NC(=O)[C@H](Cc1ccccc1)NC(=O)[C@H](Cc1ccccc1)NC(=O)[C@H](CC(=O)O)NC(=O)CNC(=O)[C@H](CC(C)C)NC(=O)[C@@H](N)CC(C)C)C(=O)NCC(=O)N[C@@H](CCCCN)C(=O)N[C@@H](CCC(=O)O)C(=O)N[C@@H](Cc1ccccc1)C(=O)N[C@@H](CCCCN)C(=O)N[C@@H](CCCNC(=N)N)C(=O)N[C@H](C(=O)N[C@H](C(=O)N[C@@H](CCC(N)=O)C(=O)N[C@@H](CCCNC(=N)N)C(=O)N[C@H](C(=O)N[C@@H](CCCCN)C(=O)N[C@@H](CC(=O)O)C(=O)N[C@@H](Cc1ccccc1)C(=O)N[C@@H](CC(C)C)C(=O)N[C@@H](CCCNC(=N)N)C(=O)N[C@@H](CC(N)=O)C(=O)N[C@@H](CC(C)C)C(=O)N[C@H](C(=O)N1CCC[C@H]1C(=O)N[C@@H](CCCNC(=N)N)C(=O)O)C(C)C)[C@@H](C)CC)C(C)C)[C@@H](C)CC [LL-34—E11A] (H-LLGDFFRKSKAKIGKEFKRIVQRIKDFLRNLVPR-OH; N-terminus and C-terminus assumed) |  | 5 µM
CC[C@H](C)[C@H](NC(=O)[C@H](CCCCN)NC(=O)[C@H](CCC(=O)O)NC(=O)[C@H](CCCCN)NC(=O)[C@H](CO)NC(=O)[C@H](CCCCN)NC(=O)[C@H](CCCNC(=N)N)NC(=O)[C@H](Cc1ccccc1)NC(=O)[C@H](Cc1ccccc1)NC(=O)[C@H](CC(=O)O)NC(=O)CNC(=O)[C@H](CC(C)C)NC(=O)[C@@H](N)CC(C)C)C(=O)NCC(=O)N[C@@H](C)C(=O)N[C@@H](CCC(=O)O)C(=O)N[C@@H](Cc1ccccc1)C(=O)N[C@@H](CCCCN)C(=O)N[C@@H](CCCNC(=N)N)C(=O)N[C@H](C(=O)N[C@H](C(=O)N[C@@H](CCC(N)=O)C(=O)N[C@@H](CCCNC(=N)N)C(=O)N[C@H](C(=O)N[C@@H](CCCCN)C(=O)N[C@@H](CC(=O)O)C(=O)N[C@@H](Cc1ccccc1)C(=O)N[C@@H](CC(C)C)C(=O)N[C@@H](CCCNC(=N)N)C(=O)N[C@@H](CC(N)=O)C(=O)N[C@@H](CC(C)C)C(=O)N[C@H](C(=O)N1CCC[C@H]1C(=O)N[C@@H](CCCNC(=N)N)C(=O)O)C(C)C)[C@@H](C)CC)C(C)C)[C@@H](C)CC [LL-34—K15A] (H-LLGDFFRKSKEKIGAEFKRIVQRIKDFLRNLVPR-OH; N-terminus and C-terminus assumed) |  | 2.5 µM

— paper PMC8214221, “Sequence determinants in the cathelicidin LL-37 that promote inflammation via presentation of RNA to scavenger receptors” (The Journal of Biological Chemistry, 2021)
